As usually defined, the IC50 is the concentration that inhibits the measured activity by half.

Experiment [1] addresses human ERK-2 (Mitogen Activated Kinase 1) (Homo sapiens (Human), UniProt P28482). Description: ERK-2 Enzymatic Assay. It counts as biochemical. On the procedure: Compounds were tested in an enzymatic assay using human ERK-2 (Mitogen Activated Kinase 1), recombinantly expressed as an n-terminal 6-His fusion protein in E. coli and corresponding to a 8-360. The substrate used was the fluorescent Omnia peptide S/T17 (Invitrogen of Carlsbad, Calif.; Cat. KNZ1171C). Test compounds were diluted in DMSO in 3-fold serial dilutions at 100× final concentrations. […] The assay was run at ambient temperature in a white 384-well polypropylene plate (Nunc, Inc of Naperville, Ill.; Cat. 267462) collecting data every 50 seconds for approximately 30 minutes on an Envision plate reader (PerkinElmer, Inc. of Waltham, Mass.); Excitation 340 nm/Emission 495 nm. The data collected from each well was fit to a straight line, and the resulting rates were used to calculate percent of control. Percent of control was plotted against compound concentration, and IC50 values were determined using a four-parameter fit. Representative data is in TABLE 3 (infra).

Experiment [2] deals with PMA-stimulated P90RSK(Ser380) phosphorylation in HepG2 cells. In words: Cellular P90RSK(Ser380) Phosphorylation Assay. Conditions: Homo sapiens, 1.5 hour compound incubation, PMA 100 ng/mL. In kind it is cell-based. Here is the method: Cellular P90RSK(Ser380) Phosphorylation Assay
Inhibition of PMA-stimulated P90RSK(Ser380) phosphorylation was determined by the following in vitro cellular mechanistic assay, which comprises incubating cells with a compound for 1.5 hours and quantifying fluorescent pP90RSK(Ser380) signal on fixed cells and normalizing to GAPDH signal.
Materials and Methods: HepG2 cells were obtained from ATCC and grown in DMEM supplemented with 10% fetal bovine serum. Cells were plated in 96-well plates at 35,000 cells/well and allowed to attach overnight at 37° C./5% CO2. Diluted compounds were then added at a final concentration of 0.5% DMSO. After 1.5 hour compound incubation, cells were stimulated with the addition of PMA (phorbol 12-myristate 13-acetate) at a final concentration of 100 ng/mL; the PMA stimulation was a 30-minute incubation at 37° C./5% CO2. After the 30-minute PMA stimulation, cells were washed with PBS and fixed in 3.7% formaldehyde in PBS at room temperature for 15-20 minutes. This was followed by another wash in PBS and then permeabilization in 100% MeOH at room temperature for 10-15 minutes. Following the permeabilization incubation, cells were washed in PBS/0.05% Tween-20, followed by a block in Odyssey blocking buffer (LI-COR Biosciences) for at least 1 hour. […] Both secondary antibodies were used at a 1:1000 dilution. Cells were then washed and analyzed for fluorescence at both wavelengths using the Odyssey Infrared Imaging System (LI-COR Biosciences). Phosphorylated P90RSK(Ser380) signal was normalized to GAPDH signal.

The mark [3] stands for this setting: 25 uM ATP, Omnia peptide S/T17, read-out: Erk Enzymatic Assay IC50.

Where two headings read alike, the source gives them in different places.

human ERK-2 (Mitogen Activated Kinase 1), sequence (P28482 8-360): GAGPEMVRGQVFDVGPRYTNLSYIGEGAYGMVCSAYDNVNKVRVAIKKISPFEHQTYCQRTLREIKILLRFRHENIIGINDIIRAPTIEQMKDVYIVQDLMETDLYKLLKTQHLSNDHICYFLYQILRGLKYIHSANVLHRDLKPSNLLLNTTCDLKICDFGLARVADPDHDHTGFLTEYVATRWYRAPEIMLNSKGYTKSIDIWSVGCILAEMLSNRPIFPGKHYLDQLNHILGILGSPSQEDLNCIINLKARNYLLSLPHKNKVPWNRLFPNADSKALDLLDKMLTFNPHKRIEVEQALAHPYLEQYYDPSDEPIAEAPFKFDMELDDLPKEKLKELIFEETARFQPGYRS

On to `COc1ccc([C@H](NC(=O)c2ccc3cnc(N[C@H]4CCOC4)cc3n2)c2cnn(C)c2)cc1F` (single isomer, unassigned) [I-52], for which the IC50 in experiment [1] (read-out: ERK IC50) came to 1.27 nM.

Consider `COc1ccc([C@H](NC(=O)c2ccc3cnc(N[C@@H]4CCOC4)cc3n2)c2cnn(C)c2)cc1F` (single isomer, unassigned) [I-53], for which, in experiment [1] (read-out: ERK IC50), the IC50 was found to be 2.75 nM.

For `O=C(N[C@H](CO)c1ccc(Cl)c(F)c1)c1ccc2cnc(NC3CCOCC3)cc2n1` [I-5, 7-(Tetrahydro-pyran-4-ylamino)-[1,6]naphthyridine-2-carboxylic acid [(S)-1-(4-chloro-3-fluoro-phenyl)-2-hydroxy-ethyl]-amide], the IC50 amounted to 16.3 nM in experiment [2] and 4.04 nM in experiment [1] (setting [3]). As to `CC[C@@H](NC(=O)c1ccc2cnc(NC3CCOCC3)cc2n1)c1ccc(OC)c(F)c1` [I-6, 7-(Tetrahydro-pyran-4-ylamino)-[1,6]naphthyridine-2-carboxylic acid [(R)-1-(3-fluoro-4-methoxy-phenyl)-propyl]-amide], the values for the IC50 in experiment [2] and in experiment [1] (setting [3]) were 5.96 nM and 2.1 nM, respectively. `Cn1nccc1Nc1cc2nc(C(=O)N[C@H](CO)c3ccc(Cl)c(F)c3)ccc2cn1` [I-8, 7-(2-Methyl-2H-pyrazol-3-ylamino)-[1,6]naphthyridine-2-carboxylic acid [(S)-1-(4-chloro-3-fluoro-phenyl)-2-hydroxy-ethyl]-amide]: in experiment [2], the IC50 stood at 9.84 nM. On to `O=C(NCc1ccc(Cl)c(F)c1)c1ccc2cnc(NC3CCOCC3)cc2n1` [I-11, 7-(Tetrahydro-pyran-4-ylamino)-[1,6]naphthyridine-2-carboxylic acid 4-chloro-3-fluoro-benzylamide], for which the IC50 in experiment [2] is 98.9 nM; in experiment [1] (setting [3]), 3.43 nM.

With `COc1ccc([C@H](NC(=O)c2ccc3cnc(NC4CCOCC4)cc3n2)c2cnn(C)c2)cc1F` [I-21, (S)—N-((3-Fluoro-4-methoxyphenyl)(1-methyl-1H-pyrazol-4-yl)methyl)-7-(tetrahydro-2H-pyran-4-ylamino)-1,6-naphthyridine-2-carboxamide], the IC50 came out at 18.7 nM in experiment [2] and 1.86 nM in experiment [1] (setting [3]). Consider `COc1ccc([C@H](NC(=O)c2ccc3cnc(N[C@@H](C)CO)cc3n2)c2cnn(C)c2)cc1F` [I-24, N—((S)-(3-Fluoro-4-methoxyphenyl)(1-methyl-1H-pyrazol-4-yl)methyl)-7-((S)-1-hydroxypropan-2-ylamino)-1,6-naphthyridine-2-carboxamide], for which the IC50 in experiment [2] came out at 37.8 nM; in experiment [1] (setting [3]), 1.15 nM.

In the case of `O=C(NCCc1ccccc1)c1ccc2cnc(NC3CCOCC3)cc2n1` [I-30, 7-(Tetrahydro-pyran-4-ylamino)-[1,6]naphthyridine-2-carboxylic acid phenethyl-amide], the IC50 is 476 nM in experiment [2] and 5.95 nM in experiment [1] (setting [3]). On to `CC[C@@H](NC(=O)c1ccc2cnc(NC3CCOCC3)cc2c1)c1ccc(Cl)c(F)c1` [II-2, 3-(Tetrahydro-pyran-4-ylamino)-isoquinoline-6-carboxylic acid [(R)-1-(4-chloro-3-fluoro-phenyl)-propyl]-amide], for which the results for the IC50 in experiment [2] and in experiment [1] (setting [3]) were 8.5 nM and 2.5 nM, respectively. Take `O=C(N[C@H](CO)c1ccc(Cl)c(F)c1)c1ccc2cnc(NC3CCOCC3)cc2c1` [II-12, 3-(Tetrahydro-pyran-4-ylamino)-isoquinoline-6-carboxylic acid [(S)-1-(4-chloro-3-fluoro-phenyl)-2-hydroxy-ethyl]-amide]: the IC50 in experiment [2] was found to be 14.8 nM; in experiment [1] (setting [3]) it was 2.8 nM.

With `Cn1cc([C@@H](NC(=O)c2ccc3cnc(Nc4ccnn4C)cc3c2)c2ccc(Cl)c(F)c2)cn1` [II-15, (S)—N-((4-Chloro-3-fluorophenyl)(1-methyl-1H-pyrazol-4-yl)methyl)-3-(1-methyl-1H-pyrazol-5-ylamino)isoquinoline-6-carboxamide], the 50% inhibitory concentration (IC50) came out at 9.97 nM in experiment [2] and 2.29 nM in experiment [1] (setting [3]). In the case of `C[C@@H](CO)Nc1cc2cc(C(=O)NCc3cc4c(F)cccc4[nH]3)ccc2cn1` [II-23, 3-((S)-2-Hydroxy-1-methyl-ethylamino)-isoquinoline-6-carboxylic acid (4-fluoro-1H-indol-2-ylmethyl)-amide], the IC50 in experiment [2] stood at 65.1 nM; in experiment [1] (setting [3]), 20.2 nM.

In the case of `COc1ccc([C@H](NC(=O)c2ccc3cnc(Nc4cc(C)nn4C)cc3c2)c2cnn(C)c2)cc1F` [II-37, (S)-3-(1,3-Dimethyl-1H-pyrazol-5-ylamino)-N-((3-fluoro-4-methoxyphenyl)(1-methyl-1H-pyrazol-4-yl)methyl)isoquinoline-6-carboxamide], the figures for the IC50 in experiment [2] and in experiment [1] (setting [3]) were 30.4 nM and 4.6 nM, respectively. Taken in the same sequence, the figures for `CC[C@@H](NC(=O)c1ccc2cnc(Nc3cc(C)nn3C)cc2c1)c1ccc(Cl)c(F)c1` [II-46, (R)—N-(1-(4-Chloro-3-fluorophenyl)propyl)-3-(1,3-dimethyl-1H-pyrazol-5-ylamino)isoquinoline-6-carboxamide] were 15.7 nM and 6.5 nM.

Regarding `COc1ccc([C@@H]2CN(C)C[C@H]2NC(=O)c2ccc3cnc(Nc4cc(C)nn4C)cc3c2)cc1` [II-64, 3-((1,3-dimethyl-1H-pyrazol-5-yl)amino)-N-((3S,4R)-4-(4-methoxyphenyl)-1-methylpyrrolidin-3-yl)isoquinoline-6-carboxamide], the IC50 in experiment [2] was determined as 5.47 nM; in experiment [1] (setting [3]), 2.68 nM.
